According to US20090215669A1, “COMPOSITIONS AND METHODS FOR TREATMENT OF DIABETES” (DIA-B TECH LIMITED, priority 2005, published 2009):
In brackets after ≈: the same amount, converted by molar mass. Like-named read-outs stand apart in the source and are kept apart here. Marks after values point to notes of the source that are not given here. Peptide text beside a SMILES is read from it.

Legend:
male Zucker fa/fa rats = assay: Intravenous injection of male Zucker fa/fa rats: blood glucose, serum insulin, C-peptide; assay type: in vivo, rat; settings: 1 U/kg of bovine insulin iv
Protocol: The Monash University Animal Ethics Committee approved all procedures performed on experimental animals. Zucker rats were purchased from the Monash University Central Animal Facility. Insulin and ISF401 were injected through the femoral vein while the rat was under anaesthesia (Pentobarbitone) and rats were humanely killed while still unconscious at the end of the procedure. The insulin concentration used for all in vivo experiments was 1 unit per kg of body weight. Blood was collected from the tail vein and glucose concentrations were measured using a Medisense glucometer. Insulin and C-peptide concentrations were measured in serum samples using a Linco Rat Insulin RIA kit according to the manufacturers instructions. Group sizes were between 5 and 8 rats per treatment.
To investigate sex differences in the insulin sensitizing effect of ISF402, age-matched male Zucker fa/fa rats were injected intravenously with ISF402 (1.5 mg/kg) and insulin as described above for female rats. […] In comparison, co-injection of ISF402 with the insulin led to a decrease in blood glucose 20 minutes after injection which remained low for a further 25 minutes (FIG. 13A). The greatest reduction in blood glucose was 0.98±0.31 mmol/L and was achieved 30 minutes after injection. […]

female Zucker fa/fa rats [1] = assay: Intraperitoneal injection of insulin with ISF402 in female Zucker fa/fa rats; assay type: in vivo, rat; settings: IP, 2 U/kg bovine insulin
Protocol: Female Zucker fa/fa rats were purchased from Monash Animal Services (Monash University, Clayton, Australia). Rats were housed in the Biochemistry and Molecular Biology Animal House (Monash University, Victoria, Australia) and allowed to acclimatize for 7 days in an environmentally controlled room at 22° C. Rats were fed normal chow and water ad libitum. All experiments were performed according to Monash University Animal Care and Ethics Committee guidelines and approved by the Monash University Animal ethics committee.
Rats of 16-18 weeks of age were fasted overnight with free access to water then anaesthetised with pentobarbitone (Nembutal, Phone Merieux, QLD, Australia) administered intraperitoneally (IP) at 35 mg/kg body weight. Blood glucose was monitored using Medisense glucometers (Abbott Laboratories, Abbott Park, Ill.) for one hour prior to administration of test substances. ISF402 was administered at 3 mg/kg by IP with 2 U/kg of bovine insulin (n=6) and controls were injected IP with insulin alone (n=8). Two experiments were performed where ISF402 was given orally. In the first experiment, controls were given saline orally by gavage (n=5) and the test group were given ISF402 orally at 15 mg/kg (n=5). After 15 minutes, insulin (2 U/kg) was injected IP. […] For both experiments, after administration of peptide blood was collected from the tail vein and glucose measured immediately. […]

female Zucker fa/fa rats [2] = assay: Intravenous injection of female Zucker fa/fa rats: blood glucose, serum insulin, C-peptide, triglyceride; assay type: in vivo, rat; settings: for Change in Serum Triglyceride levels compared to the 0 time point: ISF402 alone 4.5 mg/kg, insulin, insulin + ISF402 1.5 mg/kg, mean ± SEM (n = 5); for maximum reduction in blood glucose: 45 minutes after administration
insulin multimer = target: T1, insulin multimer (Bos taurus, UniProt P01317); assay: Gel filtration chromatography of insulin mixed with ISF402; assay type: biochemical
T1 construct: mixing insulin with ISF402 and separating molecular complexes by gel filtration chromatography
From the text: The effect of ISF402 on the multimerisation of insulin was examined in vitro by mixing insulin with ISF402 and separating molecular complexes by gel filtration chromatography, which separates on the basis of size (FIG. 7).

female Zucker fa/fa rats [3] = assay: Oral ISF402 followed by intraperitoneal insulin tolerance test (IPITT) in female Zucker fa/fa rats; assay type: in vivo, rat
Protocol: Female Zucker fa/fa rats were purchased from Monash Animal Services (Monash University, Clayton, Australia). Rats were housed in the Biochemistry and Molecular Biology Animal House (Monash University, Victoria, Australia) and allowed to acclimatize for 7 days in an environmentally controlled room at 22° C. Rats were fed normal chow and water ad libitum. All experiments were performed according to Monash University Animal Care and Ethics Committee guidelines and approved by the Monash University Animal ethics committee. Rats of 16-18 weeks of age were fasted overnight with free access to water then anaesthetised with pentobarbitone (Nembutal, Phone Merieux, QLD, Australia) administered intraperitoneally (IP) at 35 mg/kg body weight. Blood glucose was monitored using Medisense glucometers (Abbott Laboratories, Abbott Park, Ill.) for one hour prior to administration of test substances. ISF402 was administered at 3 mg/kg by IP with 2 U/kg of bovine insulin (n=6) and controls were injected IP with insulin alone (n=8). Two experiments were performed where ISF402 was given orally. In the first experiment, controls were given saline orally by gavage (n=5) and the test group were given ISF402 orally at 15 mg/kg (n=5). After 15 minutes, insulin (2 U/kg) was injected IP. The procedure was repeated three days later with the control rats once again given saline and the treated rats given 30 mg/kg ISF402. A second experiment was performed on a separate group of rats where controls were given saline orally as before (n=5) and treated rats were given ISF402 orally at 30 mg/kg (n=5), followed 15 minutes later by IP injection of 2 U/kg insulin. For both experiments, after administration of peptide blood was collected from the tail vein and glucose measured immediately. Serum samples were also collected for later measurement of C-peptide and insulin using Linco Rat C-peptide and Insulin RIA kits according to the manufacturer's instructions (Linco Research Inc, St Charles, Mo.).

[4] = Solubility of ISF402 at various pH and temperatures; assay type: physicochemical; settings: for solubility at 24 h: 25 mM ammonium bicarbonate buffer
Protocol: Solid ISF402 was added to 50 μL aliquots of 25 mM ammonium bicarbonate buffer until no more solid dissolved. The total weight of the peptide added to each tube was noted and the pH of each solution was adjusted to approximately pH 8 by the addition of 1 M NaOH. Samples were incubated with constant shaking at either room temperature (23-25° C.) or 37° C. for 24 hours then centrifuged at 16000×g for 15 minutes. 2 μL aliquots of each supernatant were diluted with milliQ-H2O to an estimated concentration of 1 mg/mL. Samples were stored at −20° C. for later analysis by HPLC using UV detection (214 nm) to determine the exact concentration of ISF402. The pH of the remaining supernatant was measured. The pH was lowered by the addition of 2 μL of 5M HCl and tube contents were mixed and incubated under the two temperature conditions. The cycle of pH lowering, incubation and sampling was repeated until a pH of between 2 and 3 was achieved.

[5] = tested on: C2C12 mouse myotube cells; assay: Microphysiometry (extracellular acidification rate) in C2C12 cells; assay type: cell-based
Protocol: C2C12 mouse myotube cells were seeded onto supports and differentiated. The cells were then placed in a Cytosensor (Molecular Devices) in non-buffered pH sensitive RPMI 1640 media. Once the cells were equilibrated at 37° C. with RPMI 1640 media (zero control), ISF402, insulin or ZnCl2 at increasing concentrations were added for a duration of 20 minutes, for each treatment. The Cytosensor measured the changed in pH as a response of cells to the treatment.
The activity of the combination of insulin and ISF402 in insulin sensitisation was explored in C2C12 muscle cells using microphysiometry, a technique that measures extracellular acidification as an indicator of cell metabolism. An ISF402 concentration of 0.1 μM was used to test for sensitisation of insulin responsiveness as this concentration produces a sub-maximal (˜20%) response in C2C12 cells. In the presence of 0.1 μM ISF402, the cellular response to insulin was increased as shown by increasing extracellular acidification rate (ECAR) with increasing concentrations of insulin, particularly at low insulin concentrations (FIG. 3).

[6] = oral ISF402 followed by IP insulin injection
[7] = iv, ISF402 4.5 mg/kg without insulin

T1 sequence (P01317 25-54 limits assumed): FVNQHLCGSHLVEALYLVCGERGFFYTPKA
T1 sequence (P01317 85-105 limits assumed): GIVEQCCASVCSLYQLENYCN

**Q.** With “Insulin: Insulin (Bovine pancreas) containing 0.6% zinc, purchased from Sigma” as the molecule, how does the “blood glucose response to insulin alone” value (male Zucker fa/fa rats) read?
**A.** no decrease at all

**Q.** And the “blood glucose after insulin alone” value (female Zucker fa/fa rats [1])?
**A.** only a small reduction in blood glucose

**Q.** What about the “Change in Serum Triglyceride levels compared to the 0 time point” value (“Change in Serum Triglyceride levels” for short) (female Zucker fa/fa rats [2]; Time 0 minutes) of the same molecule?
**A.** 0 mg/dL

**Q.** And the “Change in Serum Triglyceride levels” value (female Zucker fa/fa rats [2]; Time 10 minutes)?
**A.** +39.6 ± 15.1 mg/dl

**Q.** What about the “Change in Serum Triglyceride levels” value (female Zucker fa/fa rats [2]; Time 45 minutes) of the same molecule?
**A.** +21.1 ± 23.9 mg/dl

**Q.** What about the “Change in Serum Triglyceride levels” value (female Zucker fa/fa rats [2]; Time 60 minutes) of the same molecule?
**A.** +33.3 ± 19.8 mg/dl

**Q.** What about the “blood glucose response to insulin alone” value (female Zucker fa/fa rats [2]; female rats, 1 U/kg of bovine insulin iv) of the same molecule?
**A.** small decrease in blood glucose

**Q.** And the “maximum reduction in blood glucose” value (female Zucker fa/fa rats [2]; iv, insulin 1 U/kg + ISF402 1.5 mg/kg, or insulin alone at the same time point)?
**A.** 0.68 ± 0.22 mmol/L

**Q.** Which “effect on the size of the insulin multimer” value (insulin multimer) does the source give for `CC(C)[C@H](N)C(=O)N[C@@H](Cc1c[nH]cn1)C(=O)N[C@H](C(=O)N[C@@H](CC(=O)O)C(N)=O)[C@@H](C)O` [ISF402, Val-His-Thr-Asp-NH2] (H-VHTD-NH2) here?
**A.** reduces the size of the insulin multimer

**Q.** And the “elution volume of insulin when mixed with ISF402” value (insulin multimer; insulin without pre-mixing eluted at 14-15 mL)?
**A.** 16 to 17 mL

**Q.** And the “blood glucose in IPITT compared to control” value (female Zucker fa/fa rats [3]; ISF402 15 mg/kg oral, insulin 2 U/kg IP 15 minutes later)?
**A.** did not reach statistical significance

**Q.** And the “blood glucose in IPITT compared to the insulin-injected control group” value (female Zucker fa/fa rats [3]; ISF402 30 mg/kg oral to the same rats three days after 15 mg/kg)?
**A.** significant reduction in blood glucose

**Q.** And the “time of greatest decrease in blood glucose after administration” value (female Zucker fa/fa rats [3]; oral 30 mg/kg ISF402, IPITT)?
**A.** 2 h

**Q.** And the C-peptide concentrations (female Zucker fa/fa rats [3]; [6])?
**A.** did not change

**Q.** What about the circulating insulin concentrations (female Zucker fa/fa rats [3]; [6]) of the same molecule?
**A.** did not change

**Q.** What about the “blood glucose in IPITT compared to control” value (female Zucker fa/fa rats [3]; single dose of 30 mg/kg ISF402 oral by gavage) of the same molecule?
**A.** significant decrease in blood glucose

**Q.** What about the solubility at 24 h ([4]; 37° C., pH 6, read-out: minimum solubility) of the same molecule?
**A.** 179 mg/mL (≈ 381 mM)

**Q.** What about the solubility at 24 h ([4]; both at room temperature and 37° C., below pH 4.6 and above pH 6.9, read-out: solubility) of the same molecule?
**A.** 300 to 450 mg/mL (≈ 639 to 958 mM)

**Q.** What about the solubility at 24 h ([4]; room temperature, pH 6.3, read-out: lowest solubility) of the same molecule?
**A.** 165 mg/mL (≈ 351 mM)

**Q.** And the “pH of minimum solubility” value ([4]; both temperatures)?
**A.** 5.7-6.3

**Q.** What about the “Change in Serum Triglyceride levels” value (female Zucker fa/fa rats [2]; Time 0 minutes) of the same molecule?
**A.** 0 mg/dL

**Q.** And the “Change in Serum Triglyceride levels” value (female Zucker fa/fa rats [2]; Time 10 minutes)?
**A.** +11.3 ± 5.4 mg/dl

**Q.** And the “Change in Serum Triglyceride levels” value (female Zucker fa/fa rats [2]; Time 45 minutes)?
**A.** −16 ± 7.2^a mg/dl

**Q.** What about the “Change in Serum Triglyceride levels” value (female Zucker fa/fa rats [2]; Time 60 minutes) of the same molecule?
**A.** +44.9 ± 42.7 mg/dl

**Q.** And the “maximum reduction in blood glucose” value (female Zucker fa/fa rats [2]; iv, ISF402 4.5 mg/kg without exogenous insulin)?
**A.** 1.02 ± 0.27 mmol/L

**Q.** And the circulating insulin (female Zucker fa/fa rats [2]; [7])?
**A.** no observed increase in circulating insulin

**Q.** And the “serum C-peptide concentrations” value (female Zucker fa/fa rats [2]; [7])?
**A.** reduced

**Q.** And the “optimum ISF402 dose” value (female Zucker fa/fa rats [2]; iv, co-injected with insulin 1 U/kg)?
**A.** 1.5 mg/kg

**Q.** And the “optimal intravenous dose of ISF402” value (female Zucker fa/fa rats [2]; iv, without exogenous insulin)?
**A.** 4.5 mg/kg

**Q.** And the “glucose lowering response across the range of ISF402 doses” value (female Zucker fa/fa rats [2]; iv, 0.5-4.5 mg/kg with insulin, 3-10 mg/kg alone, AUC over 60 minutes (FIG. 2A))?
**A.** dose dependent and bell shaped

**Q.** And the “magnitude of the maximal reduction in blood glucose compared to controls” value (female Zucker fa/fa rats [2]; iv, ISF402 4.5 mg/kg vs saline, ISF402 1.5 mg/kg with insulin vs insulin alone)?
**A.** 0.95 mmol/L

**Q.** And the “response in C2C12 cells (sub-maximal, extracellular acidification)” value ([5]; 0.1 μM ISF402)?
**A.** ~20%

**Q.** And the “cellular response to insulin (extracellular acidification rate, ECAR)” value ([5]; in the presence of 0.1 μM ISF402, increasing insulin concentrations)?
**A.** increased
